Where two headings read alike, the source gives them in different places.
Key:
[1] = molecular target: T1, recombinant N-terminal GST-tagged human Rho kinase 1 (ROCK1, amino acids 1-535) (Homo sapiens, UniProt Q13464); assay: In vitro Rho kinase assay (luciferase-based ATP consumption), ROCK1; assay type: biochemical; conditions: recombinant GST-tagged human ROCK1, luciferase-based ATP consumption; read-out: ROCK1 IC50
T1 construct: ROCK1, amino acids 1-535; purchased Invitrogen Inc. PV-3691
Description: In Vitro Rho Kinase Assay
Rho kinase biochemical assays described below depend on firefly luciferase-based, indirect measurement of total ATP consumption by the kinase following incubation with substrate and ATP. 25 μl of Rho kinase assay buffer (20 mM Tris-HCL [pH 7.5], 1 mM MgCl2, 0.4 mM CaCl2, 0.15 mM EGTA, 0.1 mg/ml bovine serum albumin) containing 0.82 μg/ml of recombinant N-terminal GST-tagged human Rho kinase 1 (ROCK1, amino acids 1-535, Invitrogen Inc., cat. #PV-3691) or recombinant N-terminal GST-tagged human Rho kinase 2 (ROCK2, amino acids 1-552, Invitrogen Inc., cat #PV3759), 100 μg/ml S6 peptide substrate (related to amino acids 218-249 of the human 40S ribosomal protein S6, and suitable for ROCK1 or ROCK2, e.g. Upstate/Millipore Inc., cat #12-420), and 3 µM ATP are dispensed to wells of a 384 multi-well opaque plate. The plate is centrifuged for 30 seconds at approximately 200×g. 240 nl of test compound in DMSO is dispensed to each well by passive pin transfer. The lag phase of this in vitro kinase reaction permits addition of compounds soon after the reaction initiates. The reaction is allowed to incubate at 30° C. for 2 hours. The assay plates are sealed and maintained in a humidified environment. After 2 hours, 25 μl of easylite protein kinase assay reagent (Perkin-Elmer, Inc.) is dispensed. After an additional 10 minute incubation at room temperature (about 22° C.), luminescence activity is measured on a Molecular Devices Analyst multi-mode plate reader or other suitable plate reader. Kinase inhibition results in less ATP consumption, and therefore increased luminescence signal. Negative control activity is measured with DMSO lacking any test compound. The positive control is 2-methyl-1-(4-methylisoquinolin-5-ylsulfonyl)perhydro-1,4-diazepine hydrochloride (aka H-1152P, HCl salt). Efficacy is measured as a percentage of positive control activity. […] The designation NT means the cited example was not tested.

[2] = molecular target: T2, recombinant N-terminal GST-tagged human Rho kinase 2 (ROCK2, amino acids 1-552) (Homo sapiens, UniProt O75116); assay: In vitro Rho kinase assay (luciferase-based ATP consumption), ROCK2; assay type: biochemical
T2 construct: ROCK2, amino acids 1-552; purchased Invitrogen Inc. PV3759
In short: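 GST-ROCK2 (aa 1-552, 0.82 μg/ml) with 100 μg/ml S6 peptide and 3 µM ATP in Tris pH 7.5 buffer with MgCl2/CaCl2/EGTA/BSA, compound added just after reaction start, 2 h at 30 °C. Remaining ATP read by luciferase luminescence. Efficacy expressed as percentage of H-1152P positive control.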

[3] = recombinant GST-tagged human ROCK2, luciferase-based ATP consumption, read-out: ROCK2 IC50

T2 sequence (O75116 1-552): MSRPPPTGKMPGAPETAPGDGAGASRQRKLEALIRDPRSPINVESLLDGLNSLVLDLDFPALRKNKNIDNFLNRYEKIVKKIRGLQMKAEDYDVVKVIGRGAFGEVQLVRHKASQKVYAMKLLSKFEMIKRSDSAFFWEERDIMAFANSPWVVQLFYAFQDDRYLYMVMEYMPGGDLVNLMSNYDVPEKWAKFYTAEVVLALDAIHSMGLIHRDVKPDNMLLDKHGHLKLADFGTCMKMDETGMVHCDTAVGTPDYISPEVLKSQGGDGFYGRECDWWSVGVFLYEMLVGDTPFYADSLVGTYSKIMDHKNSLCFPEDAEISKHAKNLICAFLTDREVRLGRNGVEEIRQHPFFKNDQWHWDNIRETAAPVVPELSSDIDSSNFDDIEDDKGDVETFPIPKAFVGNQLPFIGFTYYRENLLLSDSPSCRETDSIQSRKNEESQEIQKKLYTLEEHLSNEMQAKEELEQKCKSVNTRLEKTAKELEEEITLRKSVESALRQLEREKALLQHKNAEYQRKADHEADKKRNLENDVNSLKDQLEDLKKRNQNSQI
T1 sequence (Q13464 1-535): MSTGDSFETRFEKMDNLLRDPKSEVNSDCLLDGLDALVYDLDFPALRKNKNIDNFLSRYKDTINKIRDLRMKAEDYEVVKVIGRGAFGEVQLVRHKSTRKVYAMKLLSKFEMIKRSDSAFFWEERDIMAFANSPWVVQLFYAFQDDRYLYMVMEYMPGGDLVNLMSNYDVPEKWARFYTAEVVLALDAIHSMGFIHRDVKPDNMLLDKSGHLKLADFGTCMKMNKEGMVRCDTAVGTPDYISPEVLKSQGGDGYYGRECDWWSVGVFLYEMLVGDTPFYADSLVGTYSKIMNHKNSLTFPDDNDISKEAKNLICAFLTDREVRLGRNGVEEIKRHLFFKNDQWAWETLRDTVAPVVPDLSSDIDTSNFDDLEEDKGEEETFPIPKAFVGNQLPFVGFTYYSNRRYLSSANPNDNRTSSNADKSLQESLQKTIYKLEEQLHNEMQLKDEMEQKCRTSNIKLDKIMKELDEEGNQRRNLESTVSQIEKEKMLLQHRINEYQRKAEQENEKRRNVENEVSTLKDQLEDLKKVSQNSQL

IC50 [1] [µM] | IC50 [2, 3] [µM] | Structure (SMILES) | IC50 ([2]; ROCK2 IC50, recombinant GST-tagged human ROCK2, luciferase-based ATP consumption) [µM]
< 5 | < 5 | Cc1c(-c2ccnc(N)n2)sc2ccc(Cl)cc12 [Example 1, 4-(5-Chloro-3-methylbenzo[b]thiophen-2-yl)pyrimidin-2-amine] | 
< 5 | < 5 | Nc1nccc(-c2cc3ccccc3s2)n1 [Example 2, 4-(Benzo[b]thiophen-2-yl)pyrimidin-2-amine] | 
< 5 | < 5 | Cc1c(-c2ccnc(N)n2)oc2ccccc12 [Example 3, 4-(3-Methylbenzofuran-2-yl)pyrimidin-2-amine] | 
> 5 | > 5 | Cc1c(-c2ccncc2)sc2ccc(Cl)cc12 [Example 4, 4-(5-Chloro-3-methylbenzo[b]thiophen-2-yl)pyridine] | 
> 5 | > 5 | Cc1c(-c2c[nH]c3ncccc23)sc2ccc(Cl)cc12 [Example 5, 3-(5-Chloro-3-methylbenzo[b]thiophen-2-yl)-1H-pyrrolo[2,3-b]pyridine] | 
> 5 | > 5 | Cc1c(-c2ccnc3[nH]ccc23)sc2ccc(Cl)cc12 [Example 6, 4-(5-Chloro-3-methylbenzo[b]thiophen-2-yl)-1H-pyrrolo[2,3-b]pyridine] | 
> 5 | > 5 | Cc1c(-c2ccnc(N)c2)sc2ccc(Cl)cc12 [Example 7, 4-(5-Chloro-3-methylbenzo[b]thiophen-2-yl)pyridin-2-amine] | 
> 5 | > 5 | Cc1c(-c2cc(N)ncn2)sc2ccc(Cl)cc12 [Example 8, 6-(5-Chloro-3-methylbenzo[b]thiophen-2-yl)pyrimidin-4-amine] | 
> 5 | > 5 | Cc1c(-c2cc(N)nc(N)n2)sc2ccc(Cl)cc12 [Example 9, 6-(5-Chloro-3-methylbenzo[b]thiophen-2-yl)pyrimidine-2,4-diamine] | 
< 5 | < 5 | Cc1c(-c2ccc3[nH]ncc3c2)sc2ccc(Cl)cc12 [Example 10, 5-(5-Chloro-3-methylbenzo[b]thiophen-2-yl)-1H-indazole] | 
> 5 | > 5 | Cc1c(-c2cccnc2N)sc2ccc(Cl)cc12 [Example 11, 3-(5-Chloro-3-methylbenzo[b]thiophen-2-yl)pyridin-2-amine] | 
> 5 | > 5 | Cc1c(-c2nccnc2N)sc2ccc(Cl)cc12 [Example 12, 3-(5-Chloro-3-methylbenzo[b]thiophen-2-yl)pyrazin-2-amine] | 
< 5 | < 5 | Cc1c(-c2ccnc(N)n2)sc2ccc(Br)cc12 [Example 13, 4-(5-Bromo-3-methylbenzo[b]thiophen-2-yl)pyrimidin-2-amine] | 
< 5 | < 5 | Cc1c(-c2ccnc(N)n2)sc2ccccc12 [Example 14, 4-(3-Methylbenzo[b]thiophen-2-yl)pyrimidin-2-amine] | 
< 5 | < 5 | Nc1nccc(-c2sc3ccccc3c2Br)n1 [Example 15, 4-(3-Bromobenzo[b]thiophen-2-yl)pyrimidin-2-amine] | 
> 5 |  | Cc1c(-c2ccnc(N)n2)sc2ccc(CNC(=O)C(NC(=O)OC(C)(C)C)C(C)C)cc12 (stereo not shown) [Example 293, CC(C)[C](NC(═O)OC(C)(C)C)C(═O)NCc1ccc2sc(c(C)c2c1)-c3ccnc(N)n3] | 
 | < 5 | CCN(CC)CCN(Cc1ccccc1)C(=O)c1ccc2sc(-c3ccnc(N)n3)c(C)c2c1 [Example 551, CCN(CC)CCN(Cc1ccccc1)C(═O)c2ccc3sc(c(C)c3c2)-c4ccnc(N)n4] | 
 | < 5 | Cc1c(-c2ccnc(N)n2)sc2ccc(C(=O)N3CCN(c4ccc([N+](=O)[O-])cc4)CC3)cc12 [Example 552, Cc1c(sc2ccc(cc12)C(═O)N3CCN(CC3)c4ccc(cc4)[N+]([O−])═O)-c5ccnc(N)n5] | 
 | > 5 | Cc1c(-c2ccnc(N)n2)sc2ccc(C(=O)N(C)Cc3cccc4ccccc34)cc12 [Example 553, CN(Cc1cccc2ccccc12)C(═O)c3ccc4sc(c(C)c4c3)-c5ccnc(N)n5] | 

IC50 [1] [µM] | IC50 [2, 3] [µM] | Structure (SMILES) | IC50 ([2]; ROCK2 IC50, recombinant GST-tagged human ROCK2, luciferase-based ATP consumption) [µM]
 | < 5 | Cc1ccc(Cl)cc1N1CCN(C(=O)c2ccc3sc(-c4ccnc(N)n4)c(C)c3c2)CC1 [Example 554, Cc1ccc(Cl)cc1N2CCN(CC2)C(═O)c3ccc4sc(c(C)c4c3)-c5ccnc(N)n5] | 
 | > 5 | COc1cc(CN(C)C(=O)c2ccc3sc(-c4ccnc(N)n4)c(C)c3c2)cc(OC)c1OC [Example 555, COc1cc(CN(C)C(═O)c2ccc3sc(c(C)c3c2)-c4ccnc(N)n4)cc(OC)c1OC] | 
 | > 5 | Cc1c(-c2ccnc(N)n2)sc2ccc(C(=O)N(CCc3ccccc3)Cc3ccccc3)cc12 [Example 556, Cc1c(sc2ccc(cc12)C(═O)N(CCc3ccccc3)Cc4ccccc4)-c5ccnc(N)n5] | 
 | > 5 | Cc1c(-c2ccnc(N)n2)sc2ccc(C(=O)N(C)C(Cc3ccccc3)c3ccccc3)cc12 (stereo not shown) [Example 557, CN(C(Cc1ccccc1)c2ccccc2)C(═O)c3ccc4sc(c(C)c4c3)-c5ccnc(N)n5] | 
 | > 5 | Cc1c(-c2ccnc(N)n2)sc2ccc(C(=O)N3CCC(O)(c4ccc(Cl)cc4)CC3)cc12 [Example 558, Cc1c(sc2ccc(cc12)C(═O)N3CCC(O)(CC3)c4ccc(Cl)cc4)-c5ccnc(N)n5] | 
 |  | C#CCN(Cc1ccc(Cl)cc1Cl)C(=O)c1ccc2sc(-c3ccnc(N)n3)c(C)c2c1 [Example 559, Cc1c(sc2ccc(cc12)C(═O)N(CC#C)Cc3ccc(Cl)cc3Cl)-c4ccnc(N)n4] | > 5
 | < 5 | CCN(C(=O)c1ccc2sc(-c3ccnc(N)n3)c(C)c2c1)C(Cc1ccccc1)c1ccco1 (stereo not shown) [Example 560, CCN(C(Cc1ccccc1)c2ccco2)C(═O)c3ccc4sc(c(C)c4c3)-c5ccnc(N)n5] | 
 | > 5 | Cc1c(-c2ccnc(N)n2)sc2ccc(C(=O)N3CCN(C(=O)OC(C)(C)C)C[C@H]3CO)cc12 [Example 561, Cc1c(sc2ccc(cc12)C(═O)N3CCN(C[C@H]3CO)C(═O)OC(C)(C)C)-c4ccnc(N)n4] | 
 | < 5 | Cc1c(-c2ccnc(N)n2)sc2ccc(C(=O)N3CCN(c4ccc(C(C)(C)C)cc4)CC3)cc12 [Example 562, Cc1c(sc2ccc(cc12)C(═O)N3CCN(CC3)c4ccc(cc4)C(C)(C)C)-c5ccnc(N)n5] | 
 | < 5 | Cc1c(-c2ccnc(N)n2)sc2ccc(C(=O)N3CCN(Cc4ccc5c(c4)OCO5)CC3)cc12 [Example 563, Cc1c(sc2ccc(cc12)C(═O)N3CCN(CC3)Cc4ccc5OCOc5c4)-c6ccnc(N)n6] | 
 | < 5 | COc1cc2c(cc1OC)CN(C(=O)c1ccc3sc(-c4ccnc(N)n4)c(C)c3c1)CC2 [Example 564, COc1cc2CCN(Cc2cc1OC)C(═O)c3ccc4sc(c(C)c4c3)-c5ccnc(N)n5] | 
 | > 5 | Cc1c(-c2ccnc(N)n2)sc2ccc(C(=O)N3CCN(c4ccc(C(F)(F)F)cc4)CC3)cc12 [Example 565, Cc1c(sc2ccc(cc12)C(═O)N3CCN(CC3)c4ccc(cc4)C(F)(F)F)-c5ccnc(N)n5] | 
 | > 5 | Cc1c(-c2ccnc(N)n2)sc2ccc(C(=O)N3CCN(c4cccc(C(F)(F)F)c4)CC3)cc12 [Example 566, Cc1c(sc2ccc(cc12)C(═O)N3CCN(CC3)c4cccc(c4)C(F)(F)F)-c5ccnc(N)n5] | 
 | > 5 | Cc1c(-c2ccnc(N)n2)sc2ccc(C(=O)N3CCN(c4ccc(Cl)c(Cl)c4)CC3)cc12 [Example 567, Cc1c(sc2ccc(cc12)C(═O)N3CCN(CC3)c4ccc(Cl)c(Cl)c4)-c5ccnc(N)n5] | 
 | > 5 | Cc1c(-c2ccnc(N)n2)sc2ccc(C(=O)N3CCN(c4ccc(C(F)(F)F)cn4)CC3)cc12 [Example 568, Cc1c(sc2ccc(cc12)C(═O)N3CCN(CC3)c4ccc(cn4)C(F)(F)F)-c5ccnc(N)n5] | 
 | > 5 | Cc1c(-c2ccnc(N)n2)sc2ccc(C(=O)N3CCN(c4ccccc4Cl)CC3)cc12 [Example 569, Cc1c(sc2ccc(cc12)C(═O)N3CCN(CC3)c4ccccc4Cl)-c5ccnc(N)n5] | 
 | > 5 | COc1ccc(N2CCN(C(=O)c3ccc4sc(-c5ccnc(N)n5)c(C)c4c3)CC2)cc1OC [Example 570, COc1ccc(cc1OC)N2CCN(CC2)C(═O)c3ccc4sc(c(C)c4c3)-c5ccnc(N)n5] | 
 | > 5 | Cc1c(-c2ccnc(N)n2)sc2ccc(C(=O)N3CCCC(c4ccc(C(F)(F)F)cc4)C3)cc12 (stereo not shown) [Example 571, Cc1c(sc2ccc(cc12)C(═O)N3CCCC(C3)c4ccc(cc4)C(F)(F)F)-c5ccnc(N)n5] | 
